In this experiment the target is T1, ChElp2 (Colletotrichum higginsianum, UniProt H1UVH3).
T1 construct: gene ELP2
To be noted: 25 °C.

T1 sequence (H1UVH3 19-176): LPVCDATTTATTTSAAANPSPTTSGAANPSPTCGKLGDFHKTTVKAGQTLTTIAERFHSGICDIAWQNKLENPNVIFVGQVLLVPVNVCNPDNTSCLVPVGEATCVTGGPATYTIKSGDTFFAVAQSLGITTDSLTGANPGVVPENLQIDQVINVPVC

Broadly, the Kd is the constant that tells how readily two partners part at equilibrium. In the case of `CC(=O)N[C@H]1[C@H](O[C@H]2[C@H](O)[C@@H](NC(C)=O)[C@H](O[C@H]3[C@H](O)[C@@H](NC(C)=O)C(O)O[C@@H]3CO)O[C@@H]2CO)O[C@H](CO)[C@@H](O[C@@H]2O[C@H](CO)[C@@H](O[C@@H]3O[C@H](CO)[C@@H](O[C@@H]4O[C@H](CO)[C@@H](O)[C@H](O)[C@H]4NC(C)=O)[C@H](O)[C@H]3NC(C)=O)[C@H](O)[C@H]2NC(C)=O)[C@@H]1O` (stereo partly shown) [Chi6, hexaacetylchitohexaose], the Kd was 5.03 ± 0.241 µM.

Values taken from paper PMC9614474 (Plant Physiology, 2022).
